ChEMBL document CHEMBL1144828, “Isoxazolone based inhibitors of p38 MAP kinases” (J Med Chem, 2008)

target: T1, Mitogen-activated protein kinase 14 (Homo sapiens, UniProt Q16539); experiment: Inhibition of p38-alpha MAPK
T1 sequence (Q16539 whole entry): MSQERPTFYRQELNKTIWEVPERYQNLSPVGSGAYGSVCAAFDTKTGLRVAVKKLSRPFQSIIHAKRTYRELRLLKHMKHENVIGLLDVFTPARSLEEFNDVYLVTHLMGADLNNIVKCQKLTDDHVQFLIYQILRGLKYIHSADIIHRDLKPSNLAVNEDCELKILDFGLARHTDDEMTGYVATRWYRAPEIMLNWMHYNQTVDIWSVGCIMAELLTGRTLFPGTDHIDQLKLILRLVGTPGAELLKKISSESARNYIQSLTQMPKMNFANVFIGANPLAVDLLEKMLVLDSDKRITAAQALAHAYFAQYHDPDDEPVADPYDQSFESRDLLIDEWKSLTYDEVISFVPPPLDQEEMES

Q: With CCOC(=O)CCNC(=O)n1oc(=O)c(-c2ccc(F)cc2)c1-c1ccncc1 as the compound, how does the IC50 read?
A: 970 nM

Q: How did the IC50 turn out when O=c1on(CCO)c(-c2ccncc2)c1-c1ccc(F)cc1 was run?
A: 2500 nM

Q: Which IC50 does the source give for Cc1ccc(S(=O)(=O)n2oc(=O)c(-c3ccc(F)cc3)c2-c2ccncc2)cc1 here?
A: 480 nM

Q: Which IC50 does the source give for O=C(Nc1ccc(F)cc1)n1oc(=O)c(-c2ccc(F)cc2)c1-c1ccncc1 here?
A: 320 nM

Q: COCn1oc(=O)c(-c2ccc(F)cc2)c1-c1ccncc1 was tested. Which IC50 did it give?
A: 2130 nM

Q: For CC(=O)n1oc(=O)c(-c2ccc(F)cc2)c1-c1ccncc1, which IC50 is on record?
A: 120 nM

Q: O=c1on(C(=S)Nc2ccc(F)cc2)c(-c2ccncc2)c1-c1ccc(F)cc1 was tested. Which IC50 did it give?
A: 350 nM

Q: Which IC50 does the source give for O=c1on(CCCO)c(-c2ccncc2)c1-c1ccc(F)cc1 here?
A: 1150 nM

Q: With O=c1o[nH]c(-c2ccc(F)cc2)c1-c1ccncc1 as the compound, how does the IC50 read?
A: 1400 nM

Q: Which IC50 does the source give for CCOCCn1oc(=O)c(-c2ccc(F)cc2)c1-c1ccncc1 here?
A: 1320 nM

Q: How did the IC50 turn out when CSc1nc(-c2ccc(F)cc2)c(-c2ccncc2)n1CCCO was run?
A: 813 nM

Q: For CCn1oc(=O)c(-c2ccc(F)cc2)c1-c1ccncc1, which IC50 is on record?
A: 1630 nM

Q: With CSCCn1oc(=O)c(-c2ccc(F)cc2)c1-c1ccncc1 as the compound, how does the IC50 read?
A: 3900 nM

Q: For O=c1on(CC2CC2)c(-c2ccncc2)c1-c1ccc(F)cc1, which IC50 is on record?
A: 2130 nM

Q: How did the IC50 turn out when COCCOCn1oc(=O)c(-c2ccc(F)cc2)c1-c1ccncc1 was run?
A: 3830 nM

Q: With Oc1onc(-c2ccncc2)c1-c1ccc(F)cc1 as the compound, how does the IC50 read?
A: 390 nM

Q: With O=c1on(CC2CO2)c(-c2ccncc2)c1-c1ccc(F)cc1 (stereo unspecified) as the compound, how does the IC50 read?
A: 3830 nM

Q: Which IC50 does the source give for CCNC(=O)n1oc(=O)c(-c2ccc(F)cc2)c1-c1ccncc1 here?
A: 230 nM

target: T1, Mitogen-activated protein kinase 14; experiment: Inhibition of p38-alpha MAPK at 10 uM

Q: With CC(C)n1oc(=O)c(-c2ccc(F)cc2)c1-c1ccncc1 as the compound, how does the inhibition read?
A: 42.2%

Q: COc1onc(-c2ccc(F)cc2)c1-c1ccncc1 was tested. Which inhibition did it give?
A: 26.5%

Q: With Fc1ccc(-c2noc(OCC3CC3)c2-c2ccncc2)cc1 as the compound, how does the inhibition read?
A: 26.4%

Q: OCCCOc1onc(-c2ccc(F)cc2)c1-c1ccncc1 was tested. Which inhibition did it give?
A: 9.8%

Q: With OCCOc1onc(-c2ccc(F)cc2)c1-c1ccncc1 as the compound, how does the inhibition read?
A: 14.7%

Q: COCCOc1onc(-c2ccc(F)cc2)c1-c1ccncc1 was tested. Which inhibition did it give?
A: 14.4%

Q: For Fc1ccc(-c2noc(OCC3CO3)c2-c2ccncc2)cc1 (stereo unspecified), which inhibition is on record?
A: 23.7%

Q: O=c1on(CCN2CCCCC2)c(-c2ccncc2)c1-c1ccc(F)cc1 was tested. Which inhibition did it give?
A: 38.3%

Q: How did the inhibition turn out when CC(C)Oc1onc(-c2ccc(F)cc2)c1-c1ccncc1 was run?
A: 11.9%

Q: For O=C1c2ccccc2C(=O)N1CCn1oc(=O)c(-c2ccc(F)cc2)c1-c1ccncc1, which inhibition is on record?
A: 41.9%

Q: CCOc1onc(-c2ccc(F)cc2)c1-c1ccncc1 was tested. Which inhibition did it give?
A: 13.6%

Q: Which inhibition does the source give for COCOc1onc(-c2ccc(F)cc2)c1-c1ccncc1 here?
A: 27.8%

Q: For CC(c1ccccc1)n1oc(=O)c(-c2ccc(F)cc2)c1-c1ccncc1 (stereo unspecified), which inhibition is on record?
A: 27.5%
